Assay results reported in patent publication US20100105748A1, “METHODS AND COMPOSITIONS FOR TREATMENT OF DRUG ADDICTION” (priority 2007, published 2010).
Entries after “also recorded” stand apart in the source; their conditions may differ. Structures can show the parent of a compound that is named as a salt.

Legend:
rats = rats / rodents; cited from earlier work
Dbh +/- and Dbh -/- mice = assay: Elevated plus maze (EPM), cocaine-induced anxiety, Dbh mice; format: in vivo; conditions: for percent open arm time in EPM after cocaine (cocaine-induced anxiety): antagonist i.p. 10 min prior to cocaine 10 mg/kg i.p., propranolol 5, prazosin 0.5, yohimbine 2.5 mg/kg; for percent open time in EPM, antagonist alone: same doses, no cocaine, tested 20 minutes later, vs saline-treated; for percent open arm time in EPM after cocaine: disulfuram 3x200 mg/kg i.p. two hours apart, cocaine 10 mg/kg i.p. 20 min before test
Source text: Male and female Dbh +/− and −/− mice (aged 2 to 5 months) were individually housed on a reversed light cycle (lights on at 19:00, lights off at 7:00), and were allowed a minimum of two weeks to habituate to the new lighting conditions after moving from normal light cycle (lights on at 7:00, lights off at 19:00). Food and water were available ad libitum throughout the course of the study. Data from male and female mice were combined, since there were no detectable gender differences. Dbh mice were generated as described (15) and maintained on a mixed C57Bl6/J and 129SvEv background. Dbh +/− mice were used as controls, because they have normal brain catecholamine levels and are behaviorally identical to wild-type (Dbh +/+) mice (14-16). Three-month old male and female C57BL6/J mice (Jackson Labs, Bar Harbor, […].) were also used to generalize the findings from these experiments to a different strain of wild-type mouse. Housing, handling, and testing conditions for these animals were identical to those used in experiments with Dbh +/− mice.
Behavioral testing The EPM apparatus consisted of two open arms and two enclosed arms arranged in a plus orientation. The arms were elevated 30 inches above the floor, with each arm projecting 12 inches from the center. Because rodents naturally prefer dark, enclosed compartments, a greater willingness to explore the open, well-lit arms is believed to represent a decrease in the animal's anxiety. This interpretation has been validated by the efficacy of known anxiolytic and anxiogenic treatments in this paradigm (Paine et al., (2002) Behavioural Pharmacol. 13: […]; Gorman & Dunn (1993) Pharmacol. Biochem. & Behavior 45: 1-7; Pellow et al., (1985) J. Neurosci. Methods 14: 149-167; Johnston & File (1988) Pharmacol. Biochem. & Behavior 32: 151-156).
In all experiments, cocaine was injected 20 minutes prior to behavioral testing as described by Yang and colleagues (Yang et al., (1992) Pharmacol. Biochem. & Behavior 41: 643-650). To begin each test, mice were placed in the EPM facing one of the open arms and allowed to freely explore the apparatus for five minutes, during which time their behavior was videotaped. Videotapes were later scored by an observer who was blind to genotype and treatment group. The measure used for analysis was the percentage of time spent exploring the open arms, which was calculated by dividing the time spent in the open arms by the combined time spent in open and closed arms. Because some drug treatments and genetic manipulations alter overall locomotor activity, it was important to use this percentage measurement as the dependent variable for analysis (Pellow et al., (1985) J. Neurosci. Methods 14: 149-167).
Entry into an arm of the plus maze was defined as the animal placing all four paws in that particular compartment of the apparatus. All tests were run during the dark cycle, between 14:00 and 18:00. Mice were excluded from data analysis for any of the following reasons: if they jumped or fell off the maze after test had begun, if they had […] a seizure while on the testing apparatus, or if their open arm time was detected as an outlier using Grubb's test. Of 253 total mice tested, 10 were excluded from data analysis. Data were analyzed using independent samples t-tests, one-way ANOVA followed by Dunnett's post-hoc tests, or two-way ANOVA followed by Bonferroni post-hoc tests using Prism 4.0 for Macintosh. […]
This dosing regimen is known to decrease NE by ˜70% in the mouse brain (Bourdelat-Parks et al., (2005) Psychopharmacol. 183(1): 72-80). Mice received cocaine (10 mg/kg, i.p. at 10 ml/kg, dissolved in 0.9% saline) or saline two hours after the final pretreatment injection, and behavioral testing took place 20 minutes later, as described above. […]

mice = assay: Cocaine-induced locomotion (ambulations in activity chambers); format: in vivo
Procedure: Locomotor activity measurement: Experiments were conducted in an isolated behavior room between 1000 and 1600 hrs. Ambulations (consecutive beam breaks) were measured in transparent plexiglass cages (40×20×20 cm^3) placed into a rack with seven infrared photobeams spaced 5 cm apart, each end beam 5 cm from the cage wall (San Diego Instruments Inc., LaJolla, Calif.). Mice were placed in the activity chambers for 4 hr, injected with cocaine (5, 10, or 20 mg/kg i.p.; Sigma-Aldrich, St Louis, Mo.), and ambulations were recorded for an additional 2 hr. Data were analyzed by ANOVA followed by Bonferroni post-hoc tests. For the antagonist studies, saline, the 5-HT1A antagonist WAY100635 (0.03 mg/kg), the 5-HT2 antagonist ketanserin (0.3 mg/kg), the D1 antagonist SCH23390 (0.03 mg/kg), or the D2 antagonist eticlopride were injected i.p. 30 min prior to cocaine (20 mg/kg). […] All drugs were purchased from Sigma-Aldrich (St Louis, Mo.).
Mice were implanted with minipumps for delivering either vehicle (50% DMSO, 0.9% NaCl or nepicastat (10 or 50 mg/kg/d). 3 weeks later, the mice were put in activity chambers, allowed to acclimate for 4 hrs, then injected with cocaine (10 mg/kg, i.p.) and ambulations measured for 2 additional hours, as shown in FIG. 8 (N=6 per group).
Two hours later, the mice were put in activity chambers, allowed to acclimate for 4 hrs, injected with cocaine (20 mg/kg, i.p.) and ambulations measured for 2 additional hours. (FIG. 9) (N=8 per group).

DBH [1] = target: T1, DBH (Homo sapiens, UniProt P09172); conditions: cited from earlier work
T1 sequence (P09172 1-617): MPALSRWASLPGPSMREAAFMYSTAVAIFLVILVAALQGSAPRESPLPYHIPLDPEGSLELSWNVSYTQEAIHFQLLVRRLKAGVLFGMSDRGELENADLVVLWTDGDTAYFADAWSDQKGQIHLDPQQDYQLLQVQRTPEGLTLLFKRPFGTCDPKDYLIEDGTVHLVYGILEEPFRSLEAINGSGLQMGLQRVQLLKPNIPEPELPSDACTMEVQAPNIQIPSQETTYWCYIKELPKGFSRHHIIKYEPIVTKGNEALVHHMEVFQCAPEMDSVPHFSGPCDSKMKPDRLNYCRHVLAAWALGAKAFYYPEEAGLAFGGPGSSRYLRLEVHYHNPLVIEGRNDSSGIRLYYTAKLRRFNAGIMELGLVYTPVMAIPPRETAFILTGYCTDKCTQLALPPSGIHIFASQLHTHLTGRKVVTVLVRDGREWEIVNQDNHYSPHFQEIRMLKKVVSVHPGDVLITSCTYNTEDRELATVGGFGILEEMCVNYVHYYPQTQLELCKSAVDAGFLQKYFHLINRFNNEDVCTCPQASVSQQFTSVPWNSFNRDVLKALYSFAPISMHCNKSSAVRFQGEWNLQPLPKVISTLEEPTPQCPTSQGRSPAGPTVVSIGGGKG

DBH [2] = target: T2, DBH (Mus musculus, UniProt Q64237); conditions: three injections of 200 mg/kg i.p. spaced two hours apart; cited from earlier work
T2 construct: host or cells: peripheral and central tissues of animals, in vivo
T2 sequence (Q64237 1-622): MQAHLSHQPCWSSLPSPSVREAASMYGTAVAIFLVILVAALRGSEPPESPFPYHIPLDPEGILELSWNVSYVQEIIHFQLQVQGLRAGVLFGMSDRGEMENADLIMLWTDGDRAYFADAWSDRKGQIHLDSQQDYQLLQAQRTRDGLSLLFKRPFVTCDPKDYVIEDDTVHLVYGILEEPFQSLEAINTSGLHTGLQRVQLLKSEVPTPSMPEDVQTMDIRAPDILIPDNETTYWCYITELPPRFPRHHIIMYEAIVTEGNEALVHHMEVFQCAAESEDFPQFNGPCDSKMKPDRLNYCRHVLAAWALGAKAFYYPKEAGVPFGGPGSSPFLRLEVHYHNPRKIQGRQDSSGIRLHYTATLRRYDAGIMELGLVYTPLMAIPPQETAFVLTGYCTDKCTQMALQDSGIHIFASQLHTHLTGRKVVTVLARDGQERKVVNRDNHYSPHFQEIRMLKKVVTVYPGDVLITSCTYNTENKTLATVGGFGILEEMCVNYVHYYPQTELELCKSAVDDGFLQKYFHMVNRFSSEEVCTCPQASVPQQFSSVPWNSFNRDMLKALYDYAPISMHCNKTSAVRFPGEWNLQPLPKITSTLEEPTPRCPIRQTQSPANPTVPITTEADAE

DBH [3] = conditions: animals; cited from earlier work
animal models = conditions: cited from earlier work
DBH [4] = target: T1, DBH; parameters: host or cells: human subjects, in vivo; conditions: humans; cited from earlier work
C57BL6/J wild type mice = assay: Elevated plus maze (EPM), cocaine-induced anxiety, wild type C57BL6/J mice; format: in vivo
Procedure: Behavioral testing The EPM apparatus consisted of two open arms and two enclosed arms arranged in a plus orientation. The arms were elevated 30 inches above the floor, with each arm projecting 12 inches from the center. Because rodents naturally prefer dark, enclosed compartments, a greater willingness to explore the open, well-lit arms is believed to represent a decrease in the animal's anxiety. […]
In all experiments, cocaine was injected 20 minutes prior to behavioral testing as described by Yang and colleagues (Yang et al., (1992) Pharmacol. Biochem. & Behavior 41: 643-650). […] Videotapes were later scored by an observer who was blind to genotype and treatment group. The measure used for analysis was the percentage of time spent exploring the open arms, which was calculated by dividing the time spent in the open arms by the combined time spent in open and closed arms. […]
Entry into an arm of the plus maze was defined as the animal placing all four paws in that particular compartment of the apparatus. […] Mice were excluded from data analysis for any of the following reasons: if they jumped or fell off the maze after test had begun, if they had […] a seizure while on the testing apparatus, or if their open arm time was detected as an outlier using Grubb's test. […]

## S=C(Nc1ccccc1)Nc1nccs1 [U-14,624]
rats
  reinstatement of amphetamine self-administration: block

## COc1cc2nc(N3CCN(C(=O)c4ccco4)CC3)nc(N)c2cc1OC [prazosin]
Dbh +/- and Dbh -/- mice
  percent open arm time in EPM after cocaine (cocaine-induced anxiety): preserved; also recorded: did not
  percent open time in EPM, antagonist alone: no significant effect

## CCN(CC)C(=S)SSC(=S)N(CC)CC [disulfuram, tetraethylthiuram]
mice; disulfuram via osmotic minipump 50 mg/kg/day for 2 to 3 weeks, cocaine 10 mg/kg, cocaine-naive animals
  locomotion induced by cocaine: decreased
Dbh +/- and Dbh -/- mice
  percent open arm time in EPM after cocaine: attenuates cocaine-induced anxiety
Dbh +/- and Dbh -/- mice; listed as Disulfuram
  percent open arm time in EPM after cocaine: abolished the ability of cocaine to reduce open arm exploration time; also recorded: significantly increased level of open arm exploration
Dbh +/- and Dbh -/- mice; disulfuram 3x200 mg/kg i.p., saline prior to testing
  percent open arm time in EPM, saline instead of cocaine: no effect
DBH [1]
  IC50 for DBH: low micromolar range
DBH [2]
  decrease of NE in the mouse brain: ~70%
DBH [3]
  dopamine (DA) in peripheral and central tissues: increase dopamine (DA)
  norepinepherine (NE) in peripheral and central tissues: decrease norepinepherine (NE)
rats
  reinstatement of amphetamine self-administration: attenuates; also recorded: block
Animal models
  cocaine sensitization: enhances cocaine sensitization
  locomotor response to acute administration of amphetamine: decreases
  locomotor response to acute administration of cocaine: decreases
DBH [4]
  NE and its metabolites in urine, blood, and cerebrospinal fluid: decreases

## NCc1c[nH]c(=S)n1[C@H]1CCc2c(F)cc(F)cc2C1 [nepicastat, S-5-amino methyl-1-(5,7-difluoro-1,2,3,4-tetrahydronapthalyl)-1,3-dihydroimidazole-2-thione hydrochloride]
mice; prolonged (3 weeks) minipump treatment with 10 or 50 mg/kg/day, cocaine 10 mg/kg i.p., FIG. 8
  locomotion induced by cocaine: significantly increased
mice; single acute dose 50 mg/kg i.p., cocaine 20 mg/kg i.p., FIG. 9, hydrochloride
  cocaine-induced locomotion: did not significantly affect; also recorded: does not significantly affect

## COC(=O)[C@@H]1[C@H]2C[C@H]3c4[nH]c5ccccc5c4CCN3C[C@@H]2CC[C@@H]1O [yohimbine]
Dbh +/- and Dbh -/- mice
  percent open arm time in EPM after cocaine (cocaine-induced anxiety): preserved; also recorded: did not
  percent open time in EPM, antagonist alone: no significant effect

## CC(C)NCC(O)COc1cccc2ccccc12 (stereo not drawn) [propranolol]
Dbh +/- and Dbh -/- mice
  percent open arm time in EPM after cocaine (cocaine-induced anxiety): abolished; also recorded: differed significantly from the control group; also recorded: attenuates cocaine-induced anxiety
  percent open time in EPM, antagonist alone: no significant effect
C57BL6/J wild type mice; propranolol 5 mg/kg i.p. 10 min prior to cocaine 20 mg/kg i.p.
  percent open arm time in EPM after cocaine (cocaine-induced anxiety): blocked; also recorded: attenuates cocaine-induced anxiety
C57BL6/J wild type mice; propranolol 5 mg/kg i.p., saline instead of cocaine
  baseline EPM performance: no effect
